Measured values published in publication PMC11587516 (ACS Chemical Neuroscience, 2024).
Changes are numbered by the printed parent chain.

Columns and labels:
Format in all cases: cell-based
hBGT1 = target: T1, hBGT1 (Homo sapiens, UniProt P48065); test: [3H]GABA uptake assay, CHO cells stably expressing hBGT1
T1 construct: expressed in transfected cells
T1 sequence (P48065 1-614): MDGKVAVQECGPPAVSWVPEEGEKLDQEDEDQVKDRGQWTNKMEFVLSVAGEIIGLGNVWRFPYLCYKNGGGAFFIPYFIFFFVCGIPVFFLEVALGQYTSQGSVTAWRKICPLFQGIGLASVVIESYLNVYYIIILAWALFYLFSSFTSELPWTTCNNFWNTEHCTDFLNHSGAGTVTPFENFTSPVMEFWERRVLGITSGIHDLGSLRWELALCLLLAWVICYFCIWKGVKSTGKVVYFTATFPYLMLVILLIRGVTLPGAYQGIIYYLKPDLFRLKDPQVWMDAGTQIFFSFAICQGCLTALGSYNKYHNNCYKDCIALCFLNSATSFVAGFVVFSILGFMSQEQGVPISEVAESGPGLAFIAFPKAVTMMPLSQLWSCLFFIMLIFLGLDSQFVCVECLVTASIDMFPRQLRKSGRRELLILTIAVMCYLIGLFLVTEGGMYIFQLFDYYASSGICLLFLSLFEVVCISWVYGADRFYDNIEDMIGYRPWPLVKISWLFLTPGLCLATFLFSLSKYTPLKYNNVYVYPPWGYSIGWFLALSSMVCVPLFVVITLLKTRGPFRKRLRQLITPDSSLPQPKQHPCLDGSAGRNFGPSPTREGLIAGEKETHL
Method: All selected compounds were tested for their ability to inhibit human BGT1 (hBGT1) function.
(§1) The CHO cells were placed in 96-well plates (approximately 50,000 cells/well) for about 24 h before the experiment. […] After incubation, cells were washed 3 times with 100 μL/well ice-cold assay buffer, 150 μL/well MicroScint20 (PerkinElmer) was subsequently added before the plate was shaken for at least 1 h. The radioactivity of each well of the plate was measured on a TopCount NXT scintillation counter. […] Data presented are the pooled data of at least three independent experiments with three technical replicates if not stated otherwise in figure legends. Concentration–response curves were fitted by nonlinear regression to the sigmoidal concentration–response model with GraphPad Prism v 9.0.

[1] = system: normal human astrocytes (NHA); test: WST-1 viability and proliferation assay on normal human astrocytes; details: 1–100 μM in culture medium; 24 and 48 h
Method: Taking into account the presence of BGT1 and GAT3 transporters in astrocytes, we studied the effect of compound 9 on astrocyte viability, proliferation, and homeostasis. Normal human astrocytes (NHA) were treated with 1–100 μM compound 9 in a culture medium. The WST-1 assay was used to determine the number of metabolically active cells after 24 and 48 h of incubation. […] In the next step, a higher concentration (500 μM) of the compound and a longer incubation time (72 h) were applied, and the cells were examined by phase-contrast microscopy. […] Considering the results shown in Figure 6, compound 9 was not cytotoxic toward human astrocytes under in vitro culture conditions.
Gibco Human Astrocytes (Thermo Fisher Scientific) were maintained in a humidified 5% CO2 incubator at 37 °C. The cells were cultured in Gibco Astrocyte Medium (DMEM with GlutaMAX, N-2 Supplement, and OneShot Fetal Bovine Serum) supplemented with penicillin G (100 U/mL), neomycin (10 μg/mL), and amphotericin B (0.25 μg/mL).
The effect of compound 9 on cell viability and cell proliferation was evaluated using a WST-1 assay (Roche GmbH, Mannheim, Germany) based on the cleavage of the WST-1 reagent into formazan by mitochondrial dehydrogenases in metabolically active (viable) cells. […] The absorbance was measured at 440 and 650 nm using a microplate reader Infinite 200 PRO (TECAN).

hBGT1 E52A+Q299L = target: T2, hBGT1 E52A+Q299L (Homo sapiens, UniProt P48065, E52A/Q299L); test: [3H]GABA uptake assay, hBGT1 double mutant E52A+Q299L in tsA201 cells
T2 construct: host or cells: tsA201 cells (transformed HEK293), transient expression
T2 sequence (P48065 1-614 E52A/Q299L): T1 sequence (P48065 1-614) with E52A, Q299L
Method: To validate the molecular modeling, particularly the crucial interactions with the Glu52 and Gln299 residues, the activity of compound 9 was tested on the following hBGT1 mutants: E52A, E52Y, Q299L, and the double mutant E52A+Q299L (Figure 5 and Table 1).[14]
as §1
The tsA201 cell line (a transformed HEK293 cell line) has been described previously and was cultured accordingly.[20] The tsA201 cells used for transient expression of hBGT1 mutants were transfected with DNA constructs (8 μg per 10 cm plate) using 40 μL of PolyFect transfection reagent according to the manufacturer’s protocol (Qiagen). […]

## NC12CC(C(=O)O)(C1)C2 [Compound 9]
hBGT1
  IC50: 13.9 µM
hBGT1; CHO, read-out: inhibition of [3H]GABA uptake
  inhibition at 100 µM: 81%
hBGT1; ratio of IC50 values
  preference for hBGT1 over hGAT3: over 4 fold
[1]
  effect on astrocyte survival and proliferation (WST-1): no effect on astrocyte survival and proliferation
hBGT1 E52A+Q299L
  IC50: > 1000 µM
hBGT1 E52A+Q299L; E52A+Q299L vs wt
  activity at mutant compared with wild type hBGT1: no activity
